Like-named read-outs stand apart in the source and are kept apart here.
Columns and labels:
CypD = CypD (Homo sapiens, UniProt P30405); assay: Chymotrypsin coupled prolyl-isomerase assay
Description: Five microliters of compound pre-dissolved in 5% DMSO/assay buffer was then added to appropriate wells and incubated at 2–3 °C for 5 min. Five microliters of 0.5 mM α-chymotrypsin from bovine pancreas (Type II, lyophilized powder, Millipore-Sigma) in 20% 1 mM HCl/Assay Buffer was then added to each well and incubated at 2–3 °C for 5 min. The plate was then quickly transferred to a FLIPR Tetra High-Throughput Cellular Screening System (Molecular Devices). Using the internal liquid handling system of the FLIPR, 1 µL 0.5 mM Suc-AAPF-AMC (Chymotrypsin Substrate II, Millipore-Sigma) dissolved in 0.55 M LiCl/2,2,2-trifluoroethanol was added to each well, which was then mixed for 5 s, followed by immediate fluorescence measurements every 1 s for 330 s using a 360–380 nm excitation LED module and a 400–460 nm emission filter. […] Raw fluorescence data was analyzed by non-linear regression analysis with Prism v.9 by fitting one-phase association curves to each well. […] Rate constants calculated for each well (s^−1) were then normalized to substrate only (no prolyl-isomerase) and enzyme + substrate only controls.

HeLa cells = assay: Fluorescence microscopy of Cy5-conjugated compounds; format: cell-based, human
Description: Cells were seeded into 96-well, black, clear-bottom, TC-treated plates, in DMEM supplemented with 10% FBS 24 h prior at a density where wells were ~80% confluent at the time of the experiment. Medium was removed and cells were then stained with 50 µL mixture containing Cy5-labeled compound (6 µM) in Kreb’s ringer solution HEPES buffered pH 7.2 (KRB), for 1 h at 37 °C. Then, 50 µL Hoechst 33342 (8 µM) and Mitotracker Green FM (0.1 µM) in KRB was added directly to wells containing cells and incubated for 15 min at 37 °C. Medium was removed and cells were washed twice with 100 µL KRB. Cells were then kept adherent to the wells in 100 µL KRB for imaging. Fluorescence microscopy was conducted on an Opera Phenix Plus High-Content Screening System, using Alexa 488, Alexa 647, and Hoescht 33342 channels. Images were analyzed using Harmony v.4.9.

CypG = target: T1, CypG (Homo sapiens, UniProt Q13427); assay: Chymotrypsin coupled prolyl-isomerase assay; format: biochemical; conditions: wild-type CypG; read-out: Wild-Type Cyclophilin Prolyl Isomerase Inhibition IC50 Values, CypG
T1 construct: PPIG (UniProtKB Entry Q13427: residues 1–179); His6 with thrombin site (pET28a LIC leader) (N); host or cells: E. coli BL21(DE3)
T1 sequence (Q13427 1-179): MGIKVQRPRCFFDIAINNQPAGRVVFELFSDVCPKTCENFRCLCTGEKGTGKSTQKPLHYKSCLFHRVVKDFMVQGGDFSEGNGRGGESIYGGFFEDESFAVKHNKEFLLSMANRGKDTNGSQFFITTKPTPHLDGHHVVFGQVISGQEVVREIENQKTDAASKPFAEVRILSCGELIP
Description: (§1) Adapting a previously described protocol, with an Agilent Bravo Velocity 11 with a 384ST head, 90 µL assay buffer (25 mM HEPES pH 7.3, 100 mM NaCl, 0.01% Triton X-100) containing 5.28 nM cyclophilin was added into a flat, clear-bottom, black 384-well plate pre-chilled in a Corning CoolBox at 2–3 °C. Five microliters of compound pre-dissolved in 5% DMSO/assay buffer was then added to appropriate wells and incubated at 2–3 °C for 5 min. Five microliters of 0.5 mM α-chymotrypsin from bovine pancreas (Type II, lyophilized powder, Millipore-Sigma) in 20% 1 mM HCl/Assay Buffer was then added to each well and incubated at 2–3 °C for 5 min. The plate was then quickly transferred to a FLIPR Tetra High-Throughput Cellular Screening System (Molecular Devices). Using the internal liquid handling system of the FLIPR, 1 µL 0.5 mM Suc-AAPF-AMC (Chymotrypsin Substrate II, Millipore-Sigma) dissolved in 0.55 M LiCl/2,2,2-trifluoroethanol was added to each well, which was then mixed for 5 s, followed by immediate fluorescence measurements every 1 s for 330 s using a 360–380 nm excitation LED module and a 400–460 nm emission filter. Final concentrations of the plate include 5 nM cyclophilin, 0.25% DMSO, 25 µM α-chymotrypsin, 5 µM Suc-AAPF-AMC. Raw fluorescence data was analyzed by non-linear regression analysis with Prism v.9 by fitting one-phase association curves to each well. […] Rate constants calculated for each well (s^−1) were then normalized to substrate only (no prolyl-isomerase) and enzyme + substrate only controls. IC50 values were calculated as the value at which 50% inhibition was achieved on the non-linear regression fitted curve of each compound.

CypE = target: T2, CypE (Homo sapiens, UniProt Q9UNP9); assay: Chymotrypsin coupled prolyl-isomerase assay; format: biochemical; conditions: wild-type CypE; read-out: Wild-Type Cyclophilin Prolyl Isomerase Inhibition IC50 Values, CypE
T2 construct: PPIE (UniProtKB Entry Q9UNP9: residues 131–301); host or cells: E. coli BL21(DE3)
T2 sequence (Q9UNP9 131-301): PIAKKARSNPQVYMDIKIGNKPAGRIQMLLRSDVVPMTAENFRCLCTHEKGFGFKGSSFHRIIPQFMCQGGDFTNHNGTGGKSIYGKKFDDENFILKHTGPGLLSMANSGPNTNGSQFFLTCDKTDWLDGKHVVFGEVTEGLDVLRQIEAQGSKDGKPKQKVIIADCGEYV
Description: as §1

CypA = target: T3, CypA (Homo sapiens, UniProt P62937); assay: Chymotrypsin coupled prolyl-isomerase assay; format: biochemical; conditions: wild-type CypA; read-out: Wild-Type Cyclophilin Prolyl Isomerase Inhibition IC50 Values, CypA
T3 construct: PPIA (UniProtKB Entry P62937: residues 1–165); made in house; host or cells: E. coli BL21(DE3)
T3 sequence (P62937 whole entry, the tested form may be a part): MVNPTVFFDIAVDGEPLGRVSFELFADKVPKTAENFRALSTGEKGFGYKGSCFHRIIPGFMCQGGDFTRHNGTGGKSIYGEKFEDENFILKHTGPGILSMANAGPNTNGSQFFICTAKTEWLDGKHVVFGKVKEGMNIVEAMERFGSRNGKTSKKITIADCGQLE
Description: as §1

CypC = target: T4, CypC (Homo sapiens, UniProt P45877); assay: Chymotrypsin coupled prolyl-isomerase assay; format: biochemical
T4 construct: PPIC (UniProtKB Entry P45877: residues 24–212); host or cells: E. coli BL21(DE3)
T4 sequence (P45877 24-212): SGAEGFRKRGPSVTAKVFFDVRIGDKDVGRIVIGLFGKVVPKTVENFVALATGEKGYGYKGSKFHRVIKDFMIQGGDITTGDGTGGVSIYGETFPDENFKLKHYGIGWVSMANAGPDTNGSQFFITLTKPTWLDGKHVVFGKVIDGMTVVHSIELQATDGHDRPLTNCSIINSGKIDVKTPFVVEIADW
Description: as §1

CypH = target: T5, CypH (Homo sapiens, UniProt O43447); assay: Chymotrypsin coupled prolyl-isomerase assay; format: biochemical
T5 construct: PPIH (UniProtKB Entry O43447: residues 1–177); His6 with TEV site (2BT vector leader) (N); made in house; host or cells: E. coli BL21(DE3)
T5 sequence (O43447 whole entry, the tested form may be a part): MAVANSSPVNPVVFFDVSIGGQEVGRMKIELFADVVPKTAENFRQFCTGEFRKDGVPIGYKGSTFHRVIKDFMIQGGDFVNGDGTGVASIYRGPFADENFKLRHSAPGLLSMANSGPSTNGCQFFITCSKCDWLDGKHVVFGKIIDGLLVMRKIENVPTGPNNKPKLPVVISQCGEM
Description: as §1

Cyp40 = Cyp40 (Homo sapiens, UniProt Q08752); assay: Chymotrypsin coupled prolyl-isomerase assay
Cyp40, sequence (Q08752 1-183): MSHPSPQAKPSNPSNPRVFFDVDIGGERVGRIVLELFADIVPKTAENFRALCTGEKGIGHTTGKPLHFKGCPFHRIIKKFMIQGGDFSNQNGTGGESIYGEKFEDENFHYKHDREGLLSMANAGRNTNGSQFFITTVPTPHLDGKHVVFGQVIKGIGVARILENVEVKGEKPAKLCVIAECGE
Description: as §1

PPWD1 = target: T6, PPWD1 (Homo sapiens, UniProt Q96BP3); assay: Chymotrypsin coupled prolyl-isomerase assay; format: biochemical
T6 construct: PPWD1 (UniProtKB Entry Q96BP3: residues 473–646); host or cells: E. coli BL21(DE3)
T6 sequence (Q96BP3 473-646): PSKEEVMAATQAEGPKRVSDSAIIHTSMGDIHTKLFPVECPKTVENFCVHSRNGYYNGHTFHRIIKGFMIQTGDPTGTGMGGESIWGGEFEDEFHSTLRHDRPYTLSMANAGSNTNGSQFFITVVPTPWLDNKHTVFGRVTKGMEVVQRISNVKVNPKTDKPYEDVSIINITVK

NKTR = target: T7, NKTR (Homo sapiens, UniProt P30414); assay: Chymotrypsin coupled prolyl-isomerase assay; format: biochemical
T7 construct: NKTR (UniProtKB Entry P30414: residues 7–179); host or cells: E. coli BL21(DE3)
T7 sequence (P30414 7-179): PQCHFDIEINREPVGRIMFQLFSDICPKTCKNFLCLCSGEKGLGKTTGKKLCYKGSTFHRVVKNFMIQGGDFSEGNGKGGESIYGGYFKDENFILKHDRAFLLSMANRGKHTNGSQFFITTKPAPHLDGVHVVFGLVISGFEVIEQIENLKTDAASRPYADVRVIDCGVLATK

CypB = target: T8, CypB (Homo sapiens, UniProt P23284); assay: biochemical; conditions: wild-type CypB; read-out: Wild-Type Cyclophilin Prolyl Isomerase Inhibition IC50 Values, CypB
T8 construct: PPIB (UniProtKB Entry P23284: residues 34–216); His6 with TEV site (2BT vector leader) (N); made in house; host or cells: E. coli BL21(DE3)
T8 sequence (P23284 34-216): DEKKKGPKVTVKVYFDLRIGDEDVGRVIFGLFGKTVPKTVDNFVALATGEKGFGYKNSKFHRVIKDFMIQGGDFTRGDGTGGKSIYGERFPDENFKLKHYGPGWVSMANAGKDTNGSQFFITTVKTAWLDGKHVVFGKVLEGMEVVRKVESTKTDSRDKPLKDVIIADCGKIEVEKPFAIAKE
Description: as §1

PPIL1 = target: T9, PPIL1 (Homo sapiens, UniProt Q9Y3C6); assay: Chymotrypsin coupled prolyl-isomerase assay; format: biochemical; conditions: wild-type PPIL1; read-out: Wild-Type Cyclophilin Prolyl Isomerase Inhibition IC50 Values, PPIL1
T9 construct: PPIL1 (UniProtKB Entry Q9Y3C6: residues 1–166); made in house; host or cells: E. coli BL21(DE3)
T9 sequence (Q9Y3C6 1-166): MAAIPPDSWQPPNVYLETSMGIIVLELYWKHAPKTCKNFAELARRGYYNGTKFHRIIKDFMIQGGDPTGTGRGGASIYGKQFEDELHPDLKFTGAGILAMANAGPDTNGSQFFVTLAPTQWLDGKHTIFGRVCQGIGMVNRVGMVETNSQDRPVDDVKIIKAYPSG
Description: Adapting a previously described protocol[51], with an Agilent Bravo Velocity 11 with a 384ST head, 90 µL assay buffer (25 mM HEPES pH 7.3, 100 mM NaCl, 0.01% Triton X-100) containing 5.28 nM cyclophilin was added into a flat, clear-bottom, black 384-well plate pre-chilled in a Corning CoolBox at 2–3 °C. Five microliters of compound pre-dissolved in 5% DMSO/assay buffer was then added to appropriate wells and incubated at 2–3 °C for 5 min. Five microliters of 0.5 mM α-chymotrypsin from bovine pancreas (Type II, lyophilized powder, Millipore-Sigma) in 20% 1 mM HCl/Assay Buffer was then added to each well and incubated at 2–3 °C for 5 min. […] Using the internal liquid handling system of the FLIPR, 1 µL 0.5 mM Suc-AAPF-AMC (Chymotrypsin Substrate II, Millipore-Sigma) dissolved in 0.55 M LiCl/2,2,2-trifluoroethanol was added to each well, which was then mixed for 5 s, followed by immediate fluorescence measurements every 1 s for 330 s using a 360–380 nm excitation LED module and a 400–460 nm emission filter. Final concentrations of the plate include 5 nM cyclophilin, 0.25% DMSO, 25 µM α-chymotrypsin, 5 µM Suc-AAPF-AMC. Raw fluorescence data was analyzed by non-linear regression analysis with Prism v.9 by fitting one-phase association curves to each well. Analyses were halted after the calculated maximum fluorescent value owing to observed fluorescent bleaching during the sustained fluorescent plateau. Rate constants calculated for each well (s^−1) were then normalized to substrate only (no prolyl-isomerase) and enzyme + substrate only controls. IC50 values were calculated as the value at which 50% inhibition was achieved on the non-linear regression fitted curve of each compound.

[1] = read-out: IC50 CypD, prolyl-isomerase inhibition, 5 nM cyclophilin, Suc-AAPF-AMC, mean±s.e.m. of 3 technical replicates (B52, B53, C3A wild-type: mean±s.d. of 4 independent replicates)
[2] = wild-type CypC, read-out: Wild-Type Cyclophilin Prolyl Isomerase Inhibition IC50 Values, CypC
[3] = prolyl-isomerase inhibition, 5 nM cyclophilin, read-out: IC50 CypH
[4] = wild-type CypH, read-out: Wild-Type Cyclophilin Prolyl Isomerase Inhibition IC50 Values, CypH
[5] = read-out: Wild-Type Cyclophilin Prolyl Isomerase Inhibition IC50 Values, Cyp40, wild-type Cyp40
[6] = wild-type PPWD1, read-out: Wild-Type Cyclophilin Prolyl Isomerase Inhibition IC50 Values, PPWD1
[7] = wild-type NKTR, read-out: Wild-Type Cyclophilin Prolyl Isomerase Inhibition IC50 Values, NKTR
[8] = prolyl-isomerase inhibition, 5 nM cyclophilin, read-out: IC50 PPWD1
[9] = Wild-Type Cyclophilin Prolyl Isomerase Inhibition IC50 Values, Cyp40, wild-type Cyp40
[10] = Wild-Type Cyclophilin Prolyl Isomerase Inhibition IC50 Values, CypD, wild-type CypD

CypD, sequence (P30405 45-207): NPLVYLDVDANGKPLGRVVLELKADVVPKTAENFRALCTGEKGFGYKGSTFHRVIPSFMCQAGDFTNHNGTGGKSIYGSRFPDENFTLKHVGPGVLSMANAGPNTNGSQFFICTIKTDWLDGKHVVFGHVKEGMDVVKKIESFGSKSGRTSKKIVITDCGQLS

| IC50 (Cyp40; [9]) [nM] | Structure (SMILES) | IC50 (CypD; [1]) [nM] | IC50 (CypG) [µM] | IC50 (CypE) [nM] | IC50 (CypA) [nM] | IC50 (CypC; [2]) [µM] | IC50 (CypH; [4]) [µM] | IC50 (PPWD1; [6]) [µM] | IC50 (NKTR; [7]) [µM] | IC50 (CypB) [nM] | IC50 (PPIL1) [nM] | further results |
| --- | --- | --- | --- | --- | --- | --- | --- | --- | --- | --- | --- | --- |
|  | CC(=O)NCCNC(=O)CCCCCN1\C(=C/C=C/C=C/C2=[N+](C)c3ccccc3C2(C)C)C(C)(C)c2ccccc21 [Cy5-enAc, reference compound] | > 2000 |  |  |  |  |  |  |  |  |  | plasma membrane permeability / mitochondrial localization (in words) (HeLa cells): good mitochondrial localization |
|  | CC(=O)c1ccc(-c2ccc(C[C@@H]3NC(=O)[C@]4(Cc5ccccc5)CCCN(C4)C(=O)/C=C/C(=O)NCC[C@@H](C(=O)NCCOCCN)NC(=O)Cc4ccccc4CNC3=O)cc2)cc1 [Compound B15] | 38 | 1.8 | 150 | 400 | 0.38 | 80 | 0.88 | 4.9 | 80 | 100 | preference for CypD over CypC and Cyp40 (CypD): 2- to 20 fold; IC50 (CypH; [3]): ~80 µM; IC50 (Cyp40; [5]): 60 nM |
|  | NCCOCCNC(=O)[C@@H]1CCNC(=O)/C=C/C(=O)N2CCC[C@](Cc3ccccc3)(C2)C(=O)N[C@@H](Cc2ccc(-c3ccc(CC(=O)O)cc3)cc2)C(=O)NCc2ccccc2CC(=O)N1 [Compound B22] | 40 | 10 | 130 | 700 | 14 | 100 | 50 | > 100 | 230 | 600 | IC50 (CypH; [3]): ~100 µM; IC50 (Cyp40; [5]): 1000 nM; IC50 (PPWD1; [8]): ~50 µM |
| 400 | NCCOCCNC(=O)C1CCNC(=O)C=CC(=O)N2CCCC(Cc3ccccc3)(C2)C(=O)NC(Cc2ccco2)C(=O)NCc2ccccc2CC(=O)N1 (stereo not shown) [Compound A26] |  | 0.84 | 800 | 1100 | 0.53 | 2.7 | 3.4 | 4.2 | 100 | 600 | IC50 (CypD): 200 nM; increase of CypD potency relative to JOMBt (CypD): 85 fold |
| 3000 | NCCOCCNC(=O)C1CCNC(=O)C=CC(=O)N2CCCC(C2)C(=O)NC(Cc2ccc(C(=O)c3ccccc3)cc2)C(=O)NCc2ccccc2CC(=O)N1 (stereo not shown) [Compound A14] |  | > 100 | 13000 | 19000 | 9 | > 100 | 100 | > 100 | 2700 | 10000 | IC50 (CypD; [10]): 3800 nM; IC50 (PPWD1; [8]): ~100 µM |
|  | NCCOCCNC(=O)[C@@H]1CCNC(=O)/C=C/C(=O)N2CCC[C@](Cc3ccccc3)(C2)C(=O)N[C@@H](Cc2ccc(-c3ccc(C(=O)O)cc3)cc2)C(=O)NCc2ccccc2CC(=O)N1 [Compound B20] | 300 | > 100 | 1600 | 3100 | 60 | > 100 | > 100 | > 100 | 2000 | 1400 | preference for CypD over CypC and Cyp40 (CypD): at least ninefold; IC50 (CypC; prolyl-isomerase inhibition, 5 nM cyclophilin, read-out: IC50 CypC): ~60 µM; IC50 (Cyp40): 2600 nM |
| 2600 | CC12CCCN(C1)C(=O)C=CC(=O)NCCC(C(=O)NCCOCCN)NC(=O)Cc1ccccc1CNC(=O)C(Cc1ccco1)NC2=O (stereo not shown) [Compound A25] |  | 1.9 | 14000 | 16000 | 6.5 | 24 | 40 | 8 | 900 | 11000 | IC50 (CypD; [10]): 3600 nM |
|  | NCCOCCNC(=O)[C@@H]1CCNC(=O)/C=C/C(=O)N2CCC[C@](Cc3ccccc3)(C2)C(=O)N[C@@H](Cc2ccc(-c3ccc(/C=C/C(=O)O)cc3)cc2)C(=O)NCc2ccccc2CC(=O)N1 [Compound B24] | 1.9 | 11 | 4 | 10 | 1.5 | > 50 | 6 | 13 | 5 | 20 | IC50 (Cyp40): 150 nM; IC50 (NKTR; prolyl-isomerase inhibition, 5 nM cyclophilin, read-out: IC50 NKTR): ~13 µM |

Reference: publication PMC9596378, “Discovery and molecular basis of subtype-selective cyclophilin inhibitors” (Nature Chemical Biology, 2022)
